Laboratory results as given in US9458110B2, “Phenylpyrazole derivatives as potent ROCK1 and ROCK2 inhibitors” (BRISTOL-MYERS SQUIBB COMPANY, priority 2013, dated 2016).
pIC50: −log10 of the molar value.

Assays:
ROCK1 = ROCK1 (Homo sapiens (Human), UniProt Q13464); experiment: ROCK assay (Caliper LABCHIP peptide phosphorylation), ROCK1; format: biochemical; settings: 5 μM ATP, 1.5 μM peptide substrate;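 note: Read-out is separation of phosphorylated from unphosphorylated peptide, with kinase activity inhibition computed at every concentration of a dose-response series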
ROCK2 = ROCK2 (Homo sapiens (Human), UniProt O75116); experiment: ROCK assay (Caliper LABCHIP peptide phosphorylation), ROCK2; format: biochemical; settings: 5 μM ATP, 1.5 μM peptide substrate;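 note: reaction stopped with EDTA, then phosphorylated and unphosphorylated peptide resolved by microfluidic electrophoresis, kinase inhibition computed at each compound concentration in dose-response series, DMSO under 2%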
Chain of ROCK2 (O75116 whole entry, species assumed): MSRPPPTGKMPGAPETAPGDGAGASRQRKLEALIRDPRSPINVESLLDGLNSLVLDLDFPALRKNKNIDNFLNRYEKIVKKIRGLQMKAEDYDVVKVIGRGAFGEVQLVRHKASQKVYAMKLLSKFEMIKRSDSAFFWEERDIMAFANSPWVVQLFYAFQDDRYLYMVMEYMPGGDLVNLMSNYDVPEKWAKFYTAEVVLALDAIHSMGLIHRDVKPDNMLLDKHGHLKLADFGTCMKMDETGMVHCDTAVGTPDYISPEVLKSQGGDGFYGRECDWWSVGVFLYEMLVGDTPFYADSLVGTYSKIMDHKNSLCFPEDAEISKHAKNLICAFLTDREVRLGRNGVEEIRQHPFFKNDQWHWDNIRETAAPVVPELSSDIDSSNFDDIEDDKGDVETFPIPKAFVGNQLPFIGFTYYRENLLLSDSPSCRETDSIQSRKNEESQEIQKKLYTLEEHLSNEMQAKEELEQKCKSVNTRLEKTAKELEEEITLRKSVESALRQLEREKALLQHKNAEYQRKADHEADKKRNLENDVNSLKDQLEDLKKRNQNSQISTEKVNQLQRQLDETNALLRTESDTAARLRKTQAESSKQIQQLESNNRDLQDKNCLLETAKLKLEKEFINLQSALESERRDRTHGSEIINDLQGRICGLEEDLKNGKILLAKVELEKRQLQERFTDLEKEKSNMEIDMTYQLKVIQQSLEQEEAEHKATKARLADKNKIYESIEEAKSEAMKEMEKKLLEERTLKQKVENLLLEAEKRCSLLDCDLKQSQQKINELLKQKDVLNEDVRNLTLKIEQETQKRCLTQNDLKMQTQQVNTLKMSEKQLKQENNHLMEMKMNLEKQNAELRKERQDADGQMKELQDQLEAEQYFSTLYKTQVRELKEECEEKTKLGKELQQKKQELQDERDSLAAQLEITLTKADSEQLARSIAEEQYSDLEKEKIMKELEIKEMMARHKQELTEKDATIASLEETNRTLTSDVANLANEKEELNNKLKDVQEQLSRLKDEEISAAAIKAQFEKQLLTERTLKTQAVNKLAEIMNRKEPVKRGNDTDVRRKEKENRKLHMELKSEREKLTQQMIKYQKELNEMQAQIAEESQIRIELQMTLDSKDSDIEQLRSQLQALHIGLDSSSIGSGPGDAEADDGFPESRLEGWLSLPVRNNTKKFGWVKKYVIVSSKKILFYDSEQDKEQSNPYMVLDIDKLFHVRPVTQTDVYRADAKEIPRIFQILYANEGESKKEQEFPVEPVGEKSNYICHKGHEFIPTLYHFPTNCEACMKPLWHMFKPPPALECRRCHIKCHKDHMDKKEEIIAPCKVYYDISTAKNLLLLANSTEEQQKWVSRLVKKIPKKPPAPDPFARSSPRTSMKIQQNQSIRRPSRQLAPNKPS

Chain of ROCK1 (Q13464 whole entry, species assumed): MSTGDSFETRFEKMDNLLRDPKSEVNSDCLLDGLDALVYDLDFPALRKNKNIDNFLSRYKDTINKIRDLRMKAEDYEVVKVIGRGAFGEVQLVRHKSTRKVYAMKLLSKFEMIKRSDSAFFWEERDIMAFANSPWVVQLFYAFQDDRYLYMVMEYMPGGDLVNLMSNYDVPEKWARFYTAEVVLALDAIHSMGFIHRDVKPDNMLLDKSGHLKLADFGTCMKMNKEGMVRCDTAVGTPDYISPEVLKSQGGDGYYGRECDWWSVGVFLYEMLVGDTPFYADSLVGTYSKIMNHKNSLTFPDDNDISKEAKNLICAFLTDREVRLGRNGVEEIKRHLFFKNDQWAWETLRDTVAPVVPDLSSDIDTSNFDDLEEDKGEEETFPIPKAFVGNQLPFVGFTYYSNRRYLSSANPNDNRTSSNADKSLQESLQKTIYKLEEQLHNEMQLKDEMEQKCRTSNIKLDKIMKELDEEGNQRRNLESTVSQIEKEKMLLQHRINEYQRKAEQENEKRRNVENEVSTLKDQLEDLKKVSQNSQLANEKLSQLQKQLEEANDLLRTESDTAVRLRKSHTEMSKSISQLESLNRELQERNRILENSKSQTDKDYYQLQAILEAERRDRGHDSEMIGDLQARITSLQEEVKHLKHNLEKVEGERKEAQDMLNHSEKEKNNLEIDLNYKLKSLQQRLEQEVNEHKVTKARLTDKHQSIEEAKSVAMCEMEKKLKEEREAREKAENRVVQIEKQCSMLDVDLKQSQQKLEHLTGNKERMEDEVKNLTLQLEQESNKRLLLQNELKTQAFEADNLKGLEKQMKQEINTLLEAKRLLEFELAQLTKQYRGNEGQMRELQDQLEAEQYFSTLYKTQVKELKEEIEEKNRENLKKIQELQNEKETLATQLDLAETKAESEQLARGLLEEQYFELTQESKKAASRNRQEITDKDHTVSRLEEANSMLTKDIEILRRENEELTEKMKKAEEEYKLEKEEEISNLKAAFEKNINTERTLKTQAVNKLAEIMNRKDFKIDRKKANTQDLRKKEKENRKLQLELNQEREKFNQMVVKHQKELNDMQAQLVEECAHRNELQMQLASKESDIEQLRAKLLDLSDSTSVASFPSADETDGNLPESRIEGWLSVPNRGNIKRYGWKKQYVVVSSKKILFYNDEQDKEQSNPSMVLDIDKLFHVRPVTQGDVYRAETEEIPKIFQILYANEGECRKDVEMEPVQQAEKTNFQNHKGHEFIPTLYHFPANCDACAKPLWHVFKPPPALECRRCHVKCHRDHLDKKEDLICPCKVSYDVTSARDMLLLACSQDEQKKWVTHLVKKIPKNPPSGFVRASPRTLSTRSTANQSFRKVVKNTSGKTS

SMILES	pIC50 (ROCK1)	pIC50 (ROCK2)
COc1ccc(F)c(C(C)NC(=O)c2ccc(-c3c[nH]nc3C)cc2OC)c1 (centres unmarked) [Example 213, N-[1-(2-fluoro-5-methoxyphenyl)ethyl]-2-methoxy-4-(3-methyl-1H-pyrazol-4-yl)benzamide]	7.81	8.29
COc1cccc(CNC(=O)c2ccc(-c3cn[nH]c3)cc2N)c1 [Example 214, 2-amino-N-[(3-methoxyphenyl)methyl]-4-(1H-pyrazol-4-yl)benzamide]	6.88	7.49
COc1cc(-c2cn[nH]c2)ccc1C(=O)N[C@H](CO)[C@H](O)c1ccccc1 [Example 215, N-[(1R,2R)-1,3-dihydroxy-1-phenylpropan-2-yl]-2-methoxy-4-(1H-pyrazol-4-yl)benzamide]	7.19	7.63
COc1cc(C(=O)N[C@@H](Cc2ccccc2)[C@H](O)CO)ccc1-c1cn[nH]c1 [Example 216, N-[(2S,3S)-3,4-dihydroxy-1-phenylbutan-2-yl]-3-methoxy-4-(1H-pyrazol-4-yl)benzamide]	7.29	7.96
COc1cc(-c2cn[nH]c2)ccc1C(=O)N[C@@H](Cc1ccccc1)[C@H](O)CO [Example 217, N-[(2S,3S)-3,4-dihydroxy-1-phenylbutan-2-yl]-2-methoxy-4-(1H-pyrazol-4-yl)benzamide]	7.81	7.89
COc1cc(-c2cn[nH]c2)ccc1C(=O)NC(c1ccccc1F)C(C)(C)O (centres unmarked) [Example 218, N-[1-(2-fluorophenyl)-2-hydroxy-2-methylpropyl]-2-methoxy-4-(1H-pyrazol-4-yl)benzamide]	7.61	8.19
COc1cc(-c2cn[nH]c2)ccc1C(=O)NC(c1ccccc1F)C(C)(C)O (centres unmarked) [Example 219, N-[1-(2-fluorophenyl)-2-hydroxy-2-methylpropyl]-2-methoxy-4-(1H-pyrazol-4-yl)benzamide]	6.23	6.70
Nc1cc(-c2cn[nH]c2)ccc1C(=O)NCCCc1ccccc1 [Example 220, 2-amino-N-(3-phenylpropyl)-4-(1H-pyrazol-4-yl)benzamide]	6.49	6.70
COc1cc(C(=O)NC(C)c2c(F)cccc2Cl)ccc1-c1cn[nH]c1 (centres unmarked) [Example 221, N-[1-(2-chloro-6-fluorophenyl)ethyl]-3-methoxy-4-(1H-pyrazol-4-yl)benzamide]	7.78	8.46
COc1cc(C(=O)NC2(c3ccccc3)CCC2)ccc1-c1cn[nH]c1 [Example 222, 3-methoxy-N-(1-phenyl-cyclobutyl)-4-(1H-pyrazol-4-yl)benzamide]	6.84	7.59
COc1cc(-c2cn[nH]c2)ccc1C(=O)NC(C)c1c(F)cccc1Cl (centres unmarked) [Example 223, N-[1-(2-chloro-6-fluorophenyl)ethyl]-2-methoxy-4-(1H-pyrazol-4-yl)benzamide]	7.22	7.83
COc1cc(C(=O)N[C@@H](c2ccccc2)[C@H](O)CO)ccc1-c1cn[nH]c1 [Example 224, N-[(1S,2S)-2,3-dihydroxy-1-phenylpropyl]-3-methoxy-4-(1H-pyrazol-4-yl)benzamide]	8.07	8.70
COc1cc(-c2cn[nH]c2)ccc1C(=O)N[C@@H](c1ccccc1)[C@H](O)CO [Example 225, N-[(1S,2S)-2,3-dihydroxy-1-phenylpropyl]-2-methoxy-4-(1H-pyrazol-4-yl)benzamide]	8.12	8.96
COc1cc(-c2cn[nH]c2)ccc1C(=O)NC(C)c1c(F)cccc1F (centres unmarked) [Example 226, N-[1-(2,6-difluorophenyl)ethyl]-2-methoxy-4-(1H-pyrazol-4-yl)benzamide]	7.58	8.29
COc1cc(-c2cn[nH]c2)ccc1C(=O)NC(C)c1c(F)cccc1F (centres unmarked) [Example 227, N-[1-(2,6-difluorophenyl)ethyl]-2-methoxy-4-(1H-pyrazol-4-yl)benzamide]	< 5.70	5.92
COc1ccc(F)c(C(C)NC(=O)c2ccc(-c3cn[nH]c3)cc2OC)c1 (centres unmarked) [Example 228, N-[1-(2-fluoro-5-methoxyphenyl)ethyl]-2-methoxy-4-(1H-pyrazol-4-yl)benzamide]	7.90	8.52
COc1ccc(F)c(C(C)NC(=O)c2ccc(-c3cn[nH]c3)cc2OC)c1 (centres unmarked) [Example 229, N-[1-(2-fluoro-5-methoxyphenyl)ethyl]-2-methoxy-4-(1H-pyrazol-4-yl)benzamide]	6.74	7.12
COc1cc(-c2cn[nH]c2)ccc1C(=O)NCc1cccc(S(N)(=O)=O)c1 [Example 230, 2-methoxy-4-(1H-pyrazol-4-yl)-N-[(3-sulfamoyl-phenyl)methyl] benzamide]	7.95	8.73
COc1cc(C(=O)NCc2cccc(S(N)(=O)=O)c2)ccc1-c1cn[nH]c1 [Example 231, 3-methoxy-4-(1H-pyrazol-4-yl)-N-[(3-sulfamoyl-phenyl)methyl] benzamide]	7.82	9.00

SMILES	pIC50 (ROCK1)	pIC50 (ROCK2)
COc1cc(C(=O)NC(CN)Cc2ccccc2)ccc1-c1cn[nH]c1 (centres unmarked) [Example 232, N-(1-amino-3-phenylpropan-2-yl)-3-methoxy-4-(1H-pyrazol-4-yl)benzamide]	8.98	9.44
COc1cc(-c2cn[nH]c2)ccc1C(=O)NC(CN)Cc1ccccc1 (centres unmarked) [Example 233, N-(1-amino-3-phenylpropan-2-yl)-2-methoxy-4-(1H-pyrazol-4-yl)benzamide]	8.34	8.60
COc1cc(C(=O)NCc2cccc(C(=O)NCC(C)(C)O)c2)ccc1-c1cn[nH]c1 [Example 234, N-({3-[(2-hydroxy-2-methylpropyl)carbamoyl]phenyl}methyl)-3-methoxy-4-(1H-pyrazol-4-yl)benzamide]	8.49	9.34
COc1cc(C(=O)NCc2cccc(C(=O)N(C)C)c2)ccc1-c1cn[nH]c1 [Example 235, N-{[3-(dimethyl-carbamoyl)phenyl]methyl}-3-methoxy-4-(1H-pyrazol-4-yl)benzamide]	6.30	7.03
COc1cc(C(=O)NCc2cccc(C(=O)NCC3CC3)c2)ccc1-c1cn[nH]c1 [Example 236, N-({3-[(cyclopropyl-methyl)carbamoyl]phenyl}methyl)-3-methoxy-4-(1H-pyrazol-4-yl)benzamide]	8.75	9.43
CCNC(=O)c1cccc(CNC(=O)c2ccc(-c3cn[nH]c3)c(OC)c2)c1 [Example 237, N-{[3-(ethylcarbamoyl)phenyl]methyl}-3-methoxy-4-(1H-pyrazol-4-yl)benzamide]	8.62	9.40
COc1cc(C(=O)NCc2cccc(C(=O)NC3CC3)c2)ccc1-c1cn[nH]c1 [Example 238, N-{[3-(cyclopropyl-carbamoyl)phenyl]methyl}-3-methoxy-4-(1H-pyrazol-4-yl)benzamide]	8.61	9.49
Cc1cc(C(=O)NCc2cccc(C(=O)O)c2)ccc1-c1cn[nH]c1 [Example 239, 3-({[3-methyl-4-(1H-pyrazol-4-yl)phenyl] formamido}methyl) benzoic acid]	7.21	7.94
CCNC(=O)c1cccc(CNC(=O)c2ccc(-c3cn[nH]c3)c(C)c2)c1 [Example 240, N-{[3-(ethylcarbamoyl)phenyl]methyl}-3-methyl-4-(1H-pyrazol-4-yl)benzamide]	7.93	8.58
CCN1CCC[C@H]1CNC(=O)c1cccc(CNC(=O)c2ccc(-c3cn[nH]c3)c(OC)c2)c1 [Example 241, N-{[3-({[(2S)-1-ethylpyrrolidin-2-yl]methyl}carbamoyl)phenyl]methyl}-3-methoxy-4-(1H-pyrazol-4-yl)benzamide]	8.81	9.07
COc1cc(C(=O)NCc2ccc(F)c(C(=O)O)c2)ccc1-c1cn[nH]c1 [Example 242, 2-fluoro-5-({[3-methoxy-4-(1H-pyrazol-4-yl)phenyl] formamido}methyl) benzoic acid]	7.41	8.36
Cc1cc(C(=O)NCc2cccc(C(=O)NCC3CC3)c2)ccc1-c1cn[nH]c1 [Example 243, N-({3-[(cyclopropyl-methyl)carbamoyl]phenyl}methyl)-3-methyl-4-(1H-pyrazol-4-yl)benzamide]	8.47	9.30
Cc1cc(C(=O)NCc2cccc(C(=O)NC3CC3)c2)ccc1-c1cn[nH]c1 [Example 244, N-{[3-(cyclopropyl-carbamoyl)phenyl]methyl}-3-methyl-4-(1H-pyrazol-4-yl)benzamide]	8.37	9.07
Cc1cc(C(=O)NCc2cccc(C(=O)NC[C@H]3CCCN3)c2)ccc1-c1cn[nH]c1 [Example 245, 3-methyl-4-(1H-pyrazol-4-yl)-N-[(3-{[(2R)-pyrrolidin-2-ylmethyl]carbamoyl}phenyl)methyl] benzamide]	8.61	9.15
COc1cc(C(=O)NCc2cccc(C(=O)Nc3nc4c(s3)CNCC4)c2)ccc1-c1cn[nH]c1 [Example 246, 3-methoxy-4-(1H-pyrazol-4-yl)-N-{[3-({4H,5H,6H, 7H-[1,3]thiazolo[5,4-c]pyridin-2-yl}carbamoyl)phenyl]methyl} benzamide]	9.59	9.64
COc1cc(C(=O)NCc2cccc(C(=O)Nc3nc4c(s3)CN(C)CC4)c2)ccc1-c1cn[nH]c1 [Example 247, 3-methoxy-N-{[3-({5-methyl-4H, 5H,6H,7H-[1,3]thiazolo [5,4-c]pyridin-2-yl}carbamoyl)phenyl]methyl}-4-(1H-pyrazol-4-yl)benzamide]	9.41	9.48
COc1cc(C(=O)NCc2cccc(C(=O)NC3CCN(C)CC3)c2)ccc1-c1cn[nH]c1 [Example 248, 3-methoxy-N-({3-[(1-methylpiperidin-4-yl)carbamoyl]phenyl}methyl)-4-(1H-pyrazol-4-yl)benzamide]	9.37	9.72
COc1cc(-c2cn[nH]c2)ccc1C(=O)NCc1cccc(C(=O)NC2CCN(C)CC2)c1 [Example 249, 2-methoxy-N-({3-[(1-methylpiperidin-4-yl)carbamoyl]phenyl}methyl)-4-(1H-pyrazol-4-yl)benzamide]	8.91	9.44
